Values of other authors as cited in patent publication US7879906B2, “GABA analogs, compositions and methods for manufacturing thereof” (Anchen Laboratories, Inc., priority 2006, dated 2011).

System: mouse

Row | SMILES | toxicity (LD50, mouse)
1 | O=C1CC2(CCCCC2)CN1 [gabapentin lactam] | 300 mg/kg
2 | NCC1(CC(=O)O)CCCCC1 [gabapentin] | more than 8000 mg/kg
